# Measured values taken from US6552086B1, “Sulfonamide derivatives” (Eli Lilly and Company, priority 1998, dated 2003).
# Molecular target: T1, human GluR4B receptor (Homo sapiens, UniProt P48058)
# T1 construct: expressed in transfected cells
# Experiment: Potentiation of agonist-induced excitability of human GluR4B expressed in HEK 293 cells
# Assay type: cell-based
# Details: human GluR4B receptor expressed in HEK 293 cells
# Source text: The ability of compounds of formula I to potentiate glutamate receptor-mediated response may be determined using fluorescent calcium indicator dyes (Molecular Probes, Eugene, Oreg., Fluo-3) and by measuring glutamate-evoked efflux of calcium into GluR4 transfected HEK293 cells, as described in more detail below.
# In one test, 96 well plates containing confluent monolayers of HEK cells stably expressing human GluR4B (obtained as described in European Patent Application Publication Number EP-A1-583917) are prepared. The tissue culture medium in the wells is then discarded, and the wells are each washed once with 200 μl of buffer (glucose, 10 mM, sodium chloride, 138 mM, magnesium chloride, 1 mM, potassium chloride, 5 mM, calcium chloride, 5 mM, N-[2-hydroxyethyl]-piperazine-N-[2-ethanesulfonic acid], 10 mM, to pH 7.1 to 7.3). […]
# Each test is then performed as follows. […] A second fluorescent reading is taken after 5 minutes incubation. 15 μl of 400 μM glutamate solution is then added to each well (final glutamate concentration 100 μM), and a third reading is taken. The activities of test compounds and cyclothiazide solutions are determined by subtracting the second from the third reading (fluorescence due to addition of glutamate in the presence or absence of test compound or cyclothiazide) and are expressed relative to enhance fluorescence produced by 100 μM cyclothiazide.
# T1 sequence (P48058 21-902): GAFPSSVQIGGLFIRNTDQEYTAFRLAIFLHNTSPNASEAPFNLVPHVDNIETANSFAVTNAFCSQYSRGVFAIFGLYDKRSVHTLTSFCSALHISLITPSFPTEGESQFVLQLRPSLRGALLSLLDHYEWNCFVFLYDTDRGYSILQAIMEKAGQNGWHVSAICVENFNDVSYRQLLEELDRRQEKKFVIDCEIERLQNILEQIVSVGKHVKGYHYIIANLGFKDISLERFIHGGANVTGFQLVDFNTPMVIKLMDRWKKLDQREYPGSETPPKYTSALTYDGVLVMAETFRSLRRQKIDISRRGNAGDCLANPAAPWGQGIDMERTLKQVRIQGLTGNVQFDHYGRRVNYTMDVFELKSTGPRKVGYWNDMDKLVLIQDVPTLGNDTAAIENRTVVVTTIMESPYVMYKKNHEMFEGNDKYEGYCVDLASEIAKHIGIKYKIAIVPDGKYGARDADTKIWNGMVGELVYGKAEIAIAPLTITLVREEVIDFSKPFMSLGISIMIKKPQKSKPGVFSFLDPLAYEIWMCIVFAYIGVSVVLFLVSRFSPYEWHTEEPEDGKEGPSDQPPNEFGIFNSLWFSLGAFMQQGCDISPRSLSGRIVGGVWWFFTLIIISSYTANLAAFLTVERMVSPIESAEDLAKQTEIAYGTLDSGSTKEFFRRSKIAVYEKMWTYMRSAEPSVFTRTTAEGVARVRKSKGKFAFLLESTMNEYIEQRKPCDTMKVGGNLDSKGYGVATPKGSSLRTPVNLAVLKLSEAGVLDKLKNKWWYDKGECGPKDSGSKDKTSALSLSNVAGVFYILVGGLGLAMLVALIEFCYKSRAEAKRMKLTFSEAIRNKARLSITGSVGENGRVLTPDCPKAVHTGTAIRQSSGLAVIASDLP
smiles,measurement,value
NS(=O)(=O)c1cc2c(cc1Cl)NC(C1CC3C=CC1C3)NS2(=O)=O (stereo not shown) [cyclothiazide],potentiation of agonist-induced excitability,potentiate
